From patent US20120302609A1, “Pyrazolines for the Modulation of PKM2” (Dynamix Pharmaceuticals LTD., priority 2011, published 2012) come the findings set out here.

One experiment has as its system H1299 (lung). Nature of the experiment: Cell proliferation assay (CellTiter-Glo Luminescent). Format: cell-based, human. As to conditions: 96 hr. On the procedure: 1. Cells were grown according to the ATCC conditions. 2. Cell feeding (passaging) was timed such that the cells were in exponential growth phase at the time of the assay.
3. On day 1, H1299 cells were counted. Cell numbers were adjusted to the desired cell concentration in Media 1: RPMI 1640 Invitrogen 11879020 (that contained no glucose or pyruvate) with 10% FBS, and 1 mM D-Glucose (4 μl of 2.5 M D-glucose G8769 was added in preparing 10 ml RPMI media with 1 mM glucose). A 200 μl of H1299 cell suspension was added to appropriate wells in the 96-well plates, and incubated at 37° C. in the CO2 cell incubator under normal growing conditions for overnight. 4. On day 2, a 100 mM stock concentration of test compounds in 100% DMSO was prepared and serially diluted with 100% DMSO to 33.33 mM, 11.11 mM, and 3.7 mM. A 1:1000 dilution was made to each concentration in media 1 (yielding 0.1% final DMSO concentration). The media was aspirated completely from the cell plate. Each 100 μl of the following solutions (100 μM, 33.33 μM, 11.11 μM, and 3.7 μM) was added to the cells. DMSO in a final concentration of 0.1%, and media without DMSO, were added to the cells and used as a negative control. Empty wells around the experimental wells were filled with PBS. The plate was sealed with parafilm to reduce evaporation. 5. The plate was incubated under normal conditions (5% CO2, and 95% air), for 96 hours at 37° C. 6. On day 6 (after 96 hr incubation), the plate was equilibrated to room temperature for approximately 30 minutes. A 100 μl of CellTiter-Glo Reagent was added in each well of the plate. Contents were mixed for 2 minutes on an orbital shaker to induce cell lysis. The plate was incubated at room temperature for 10 minutes to stabilize luminescent signal. Luminescence was recorded with Flexstation 3.
Unless noted otherwise, proliferation of control or compound treated H1299 cells was measured using CellTiter-Glo Luminescent assay following 96 hr incubation of the cells with and without test compounds. The AC50 values, shown in Table 3, were coded according to follows: A: <3 μM; B: 3-10 μM; C: 10-20 μM; or D: >20 μM.
For orientation: ATP-based viability assays read luminescence as a measure of living cells.

The next experiment deals with T1, PKM2, human recombinant (Homo sapiens, UniProt P14618).
T1 construct: purchased BPS 50295
T1 sequence (P14618 whole entry): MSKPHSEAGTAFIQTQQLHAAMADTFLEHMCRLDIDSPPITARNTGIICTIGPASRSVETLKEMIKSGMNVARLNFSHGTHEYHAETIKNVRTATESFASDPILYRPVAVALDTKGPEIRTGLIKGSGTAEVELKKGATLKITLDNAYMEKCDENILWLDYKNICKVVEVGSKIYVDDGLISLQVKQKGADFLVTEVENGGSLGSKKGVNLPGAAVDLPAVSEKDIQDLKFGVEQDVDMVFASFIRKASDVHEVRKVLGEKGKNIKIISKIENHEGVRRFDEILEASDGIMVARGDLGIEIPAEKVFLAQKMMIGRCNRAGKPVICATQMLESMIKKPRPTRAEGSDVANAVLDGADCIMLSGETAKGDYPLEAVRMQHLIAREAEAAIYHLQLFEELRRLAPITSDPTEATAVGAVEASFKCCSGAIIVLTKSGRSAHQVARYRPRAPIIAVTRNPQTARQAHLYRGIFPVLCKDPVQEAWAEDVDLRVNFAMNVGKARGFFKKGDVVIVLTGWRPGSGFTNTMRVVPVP
Nature of the experiment: PKM2 enzymatic activity assay (Kinase-Glo Plus luminescence).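 On Max activity Group: percent increase over no-compound signal after subtracting the no-PKM2 background.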 The note with it: for AC50: 0.1 nM PKM2, 0.1 mM ADP, 0.5 mM PEP, 1 hour, room temperature, read-out: AC50 group; for Emax: 1 h, read-out: Max activity Group; for Emax / Max activity Group: maximum percent activity, luminescence without compound = 0% activity. Format: biochemical. Here is the method:
PKM2 performs the following enzymatic reaction, where the PKM2 substrates, PEP (phosphoenolpyruvate) and ADP, are converted to pyruvate and ATP as follows:
All of the enzymatic reactions were conducted in duplicates at room temperature for 1 hour in a 50 μL mixture containing: • PKM2 assay buffer (50 mM Imidazole, pH 7.2; 7 mM MgCl2; 50 mM KCl; 0.01% Tween; • and 0.05% BSA), 0.1 mM ADP, 0.5 mM PEP, 0.1 nM PKM2 enzyme (PKM2, human recombinant (BPS catalog number 50295)) and the indicated test compound. Fructose 1,6 biphosphat e, (FBP (Sigma)) was used as a positive control for activation at concentration of 0.5 mM. After enzymatic reactions, 50 μL of Kinase-Glo® Plus reagent (Promega kit) was added to each well and luminescence was measured using a BioTek Synergy™ 2 microplate reader.
PKM2 activity assays were performed in duplicates at each concentration. The luminescence data were analyzed using the computer software, GraphPad PRISM®. In the absence of the compound, the luminescence was defined as 0% activity. The percent activity in the presence of each compound was calculated according to the following equation:
% Activity=[(L−Lb)/(Lt−Lb)−1]×100%
where L=the luminescence in the presence of the test compound, Lb=the luminescence in the absence of PKM2, and Lt=the luminescence intensity in the absence of the test compound. The % activity values versus a series of compound concentrations were plotted using non-linear regression analysis of Sigmoidal dose-response curve generated with the equation Y=B+(T−B)/1+10^((LogEC50-X)×Hill Slope), where Y=percent activity, B=minimum percent activity, T=maximum percent activity, X=logarithm of compound and Hill Slope=slope factor or Hill coefficient. The AC50 values, shown in Table 2 were determined for the indicated test compounds as the concentration causing a half-maximal percent activity.
On the technique in general: Kinase-Glo reads ATP consumption through a luciferase reaction.

The next experiment relates to 786-O (kidney). Kind of experiment: Cell proliferation assay (CellTiter-Glo Luminescent). Format: cell-based. The note with it: Homo sapiens, 786-0, 1 mM glucose, 96 hr.
[1] abbreviates: Homo sapiens, NCI-H1299, 1 mM glucose.

Each structure is given as a SMILES string.

As to `COc1ccc(C2CC(c3ccc(NS(=O)(=O)c4cccc(OC)c4)cc3)=NN2C(C)=O)cc1` (racemic) [Compound 18A, N-(4-(1-Acetyl-5-(4-methoxyphenyl)-4,5-dihydro-1H-pyrazol-3-yl)phenyl)-3-methoxy benzenesulfonamide], the AC50 (in general, the concentration giving half of the maximal activity seen) in the experiment with H1299 (lung) (setting [1]) was over 20 µM. Besides, at PKM2, human recombinant, the AC50 is at most 1 µM and the Emax is 130 to 200%.
On to `COc1ccc(C2CC(c3ccc(NS(=O)(=O)c4ccc(Cl)cc4)cc3)=NN2C(C)=O)cc1` (racemic) [Compound 26A, N-(4-(1-Acetyl-5-(4-methoxyphenyl)-4,5-dihydro-1H-pyrazol-3-yl)phenyl)-4-chloro benzenesulfonamide], for which the AC50 with H1299 (lung) (setting [1]) was over 20 µM; in the experiment with 786-O (kidney), 3 to 10 µM; at PKM2, human recombinant, at most 1 µM. Besides, the Emax at PKM2, human recombinant was at most 130%.
The compound `COc1ccc(C2CC(c3ccc(NS(=O)(=O)c4cccc(OC)c4)cc3)=NN2C(C)=O)cc1` (single isomer, unassigned) [Compound 29A] displayed an AC50 in the experiment on H1299 (lung) (setting [1]) of over 20 µM.
With `CC(=O)N1N=C(c2ccc(NS(=O)(=O)c3ccc(F)cc3)cc2)CC1c1ccc(F)cc1` (single isomer, unassigned) [Compound 36A], the AC50 was over 20 µM in the experiment on H1299 (lung) (setting [1]); 3 to 10 µM in the experiment with 786-O (kidney); at most 1 µM at PKM2, human recombinant.
In the experiment with H1299 (lung) (setting [1]), `COc1ccc(C2CC(c3ccc(NS(=O)(=O)c4ccc(Cl)cc4)cc3)=NN2C(C)=O)cc1` (single isomer, unassigned) [Compound 37A] displayed an AC50 of over 20 µM.
Compound `COc1ccc(C2CC(c3ccc(NS(=O)(=O)c4ccc(Cl)cc4)cc3)=NN2C(C)=O)cc1` (single isomer, unassigned) [Compound 38A] returned an AC50 with H1299 (lung) (1 mM glucose) of over 20 µM.
Take `COc1ccc(C2CC(c3ccc(NS(=O)(=O)c4ccc(OC)cc4)cc3)=NN2C(C)=O)cc1` (single isomer, unassigned) [Compound 39A]: the AC50 in the experiment with H1299 (lung) (setting [1]) was over 20 µM. At PKM2, human recombinant, the AC50 is at most 1 µM and the “Max activity Group” value was “C (C: ≦130%)”.
As for `COc1ccc(C2CC(c3ccc(NS(=O)(=O)c4ccc(OC)cc4)cc3)=NN2C(C)=O)cc1` (single isomer, unassigned) [Compound 40A], the AC50 in the experiment on H1299 (lung) (1 mM glucose) is over 20 µM; in the experiment on H1299 (lung) (Complete media), over 20 µM; at PKM2, human recombinant, at most 1 µM. Further, the “Max activity Group” value at PKM2, human recombinant is given as “A (A: ≧200%)”.
With `COc1ccc(C2CC(c3ccc(NS(=O)(=O)c4ccc(C(F)(F)F)cc4)cc3)=NN2C(C)=O)cc1` (stereo not drawn) [Compound 21A, N-(4-(1-Acetyl-5-(4-methoxyphenyl)-4,5-dihydro-1H-pyrazol-3-yl)phenyl)-4-(trifluoromethyl)benzenesulfonamide], the AC50 in the experiment on H1299 (lung) (setting [1]) was 10 to 20 µM; in the experiment with 786-O (kidney), 3 to 10 µM; at PKM2, human recombinant it was at most 1 µM. The Emax at PKM2, human recombinant is 130 to 200%.
For the compound `COc1ccc(C2CC(c3ccc(NS(=O)(=O)c4ccc(F)cc4)cc3)=NN2C(C)=O)cc1Cl` (stereo not drawn) [Compound 32A, N-(4-(1-Acetyl-5-(3-chloro-4-methoxyphenyl)-4,5-dihydro-1H-pyrazol-3-yl)phenyl)-4-fluorobenzenesulfonamide], the AC50 is over 20 µM with H1299 (lung) (setting [1]) and 3 to 10 µM in the experiment on 786-O (kidney).
With `COc1ccc(C2CC(c3ccc(NS(=O)(=O)c4cccc(F)c4)cc3)=NN2C(C)=O)cc1` (stereo not drawn) [Compound 33A, N-(4-(1-Acetyl-5-(4-methoxyphenyl)-4,5-dihydro-1H-pyrazol-3-yl)phenyl)-3-fluoro benzenesulfonamide], the AC50 in the experiment with H1299 (lung) (setting [1]) is over 20 µM. For the same compound, at PKM2, human recombinant, the AC50 is at most 1 µM and the Emax lay in the range of 130 to 200%.
For the compound `COc1ccc(C2CC(c3ccc(NS(=O)(=O)c4cccc(C(F)(F)F)c4)cc3)=NN2C(C)=O)cc1` (stereo not drawn) [Compound 34A, N-(4-(1-Acetyl-5-(4-methoxyphenyl)-4,5-dihydro-1H-pyrazol-3-yl)phenyl)-3-(trifluoromethyl)benzenesulfonamide], the AC50 in the experiment with H1299 (lung) (setting [1]) is over 20 µM; in the experiment on 786-O (kidney), 3 to 10 µM.
For `CC(=O)N1N=C(c2ccc(NS(=O)(=O)c3ccc(F)cc3)cc2)C[C@@H]1c1ccc(C)cc1` [Compound 41A, (R)—N-(4-(1-Acetyl-5-(p-tolyl)-4,5-dihydro-1H-pyrazol-3-yl)phenyl)-4-fluorobenzene sulfonamide], in that order: 10 to 20 µM and 3 to 10 µM.
In the experiment with 786-O (kidney), `COc1cccc([C@H]2CC(c3ccc(NS(=O)(=O)c4ccc(F)cc4)cc3)=NN2C(C)=O)c1` [Compound 42A, (R)—N-(4-(1-Acetyl-5-(3-methoxyphenyl)-4,5-dihydro-1H-pyrazol-3-yl)phenyl)-4-fluoro benzenesulfonamide] gave a half-maximal activity concentration (AC50) of 10 to 20 µM.
As to `COc1ccc(S(=O)(=O)Nc2ccc(C3=NN(C(C)=O)C(c4ccc(F)cc4)C3)cc2)cc1` (stereo not drawn) [Compound 45A], the AC50 was over 20 µM in the experiment with H1299 (lung) (setting [1]); 3 to 10 µM with 786-O (kidney); at most 1 µM at PKM2, human recombinant. In addition, the Emax at PKM2, human recombinant was at most 130%.
In the case of `COc1ccccc1C1CC(c2ccc(NS(=O)(=O)c3ccc(F)cc3)cc2)=NN1C(C)=O` (stereo not drawn) [Compound 47A, N-(4-(1-Acetyl-5-(2-methoxyphenyl)-4,5-dihydro-1H-pyrazol-3-yl)phenyl)-4-fluoro benzenesulfonamide], the AC50 was over 20 µM in the experiment on H1299 (lung) (setting [1]) and 3 to 10 µM in the experiment on 786-O (kidney).
With `CCS(=O)(=O)Nc1ccc(C2=NN(C(C)=O)C(c3ccccc3F)C2)cc1` (stereo not drawn) [Compound 57A], at PKM2, human recombinant, the AC50 was at most 1 µM and the Emax was at most 130%.
For the compound `CCS(=O)(=O)Nc1ccc(C2=NN(C(C)=O)C(c3ccc(Cl)o3)C2)cc1` (stereo not drawn) [Compound 59A], the Max activity at PKM2, human recombinant (30 μM) is listed as 47% (30 μM).
For `CCS(=O)(=O)Nc1ccc(C2=NN(C(C)=O)C(c3cccs3)C2)cc1` (stereo not drawn) [Compound 67A], on PKM2, human recombinant, the AC50 lay within 10 to 100 µM and the Emax lay in the range of 130 to 200%.
